The assay has as its target T1, collagenase.
T1 construct: gene colG; usual product is native clostridial collagenase
Put plainly: FALGPA hydrolysis, ninhydrin detection at […] nm. Type of assay: biochemical. The settings on record: pH 7.4, 37 °C, TES, calcium chloride; chelates the metal cofactor.

`O=C(O)CN(CCN(CC(=O)O)CC(=O)O)CC(=O)O` [EDTA]: the “Collagenase / IC50” value worked out at 51.2 ± 0.12 µg/mL.

Source of the values: PMC11857742, “Antiaging Potential of Lipophilic Extracts of Caulerpa prolifera” (Marine Drugs, 2025).
